One test concerns the target T1, 5-HT3 receptor (Rattus norvegicus, UniProt P35563).
T1 construct: crude synapse membrane sample was prepared from rat cerebral cortex; from tissue; host or cells: rat cerebral cortex, crude synaptic membranes
T1 sequence (P35563 24-483): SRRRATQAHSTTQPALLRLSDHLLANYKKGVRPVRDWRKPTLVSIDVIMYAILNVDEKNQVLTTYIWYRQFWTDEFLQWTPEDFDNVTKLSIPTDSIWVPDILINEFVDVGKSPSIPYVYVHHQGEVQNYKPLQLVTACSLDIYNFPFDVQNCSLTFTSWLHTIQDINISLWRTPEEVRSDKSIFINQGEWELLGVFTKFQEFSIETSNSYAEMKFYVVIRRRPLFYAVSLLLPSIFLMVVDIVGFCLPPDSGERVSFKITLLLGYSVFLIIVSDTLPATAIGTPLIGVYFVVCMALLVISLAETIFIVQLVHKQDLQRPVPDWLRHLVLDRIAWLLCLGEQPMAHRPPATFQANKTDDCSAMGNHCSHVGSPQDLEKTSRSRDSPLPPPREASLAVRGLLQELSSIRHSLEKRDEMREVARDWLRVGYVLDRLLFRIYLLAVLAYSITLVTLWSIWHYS
The test can be described thus: 5-HT3 receptor binding test. The settings on record: for Ki: cells without asterisk, read-out: Affinity for receptor (Ki value, nM) 5-HT3. On the procedure: Experimental Example 2 : 5-HT3 receptor binding test
According to the method of Peroutka et al (European Journal of Pharmacology, vol. 148, pp. 297-299), a specific 5-HT3 receptor binding test was run using, as a tracer ligand, endo-1-methyl-N-(9-methyl-9-azabicyclo[3.3.1]non-3-yl)-1H-indazole-3-carboxamide substituted by tritium (hereinafter to be referred to as [3H]Granisetron). Specifically, crude synapse membrane sample was prepared from rat cerebral cortex, suspended in 50 mM HEPES buffer (pH 7.4) and used for testing. The test compound having several different concentrations and [3H]Granisetron (final concentration 1.0 nM) were added to this suspension and allowed to react at 25°C. Thirty minutes later, the reaction mixture was filtered by suction with cell harvester. The filter was washed with 50 mM Tris buffer (pH 7.4), and the radioactivity on the filter was counted using liquid scintillation counter or β-plate. The non-specific binding was determined in the presence of 1 µM Tropisetron. The concentration of the test compound necessary for 50% inhibition (IC50) and Ki value were determined from graph.

The next test has as its target T2, 5-HT4 receptor (Cavia porcellus, UniProt O70528).
T2 construct: crude synapse membrane sample was prepared from guinea pig striatum; from tissue; host or cells: guinea pig striatum, crude synaptic membranes
Description: 5-HT4 receptor binding test. Also on record: species or system guinea pig. On the procedure:
Experimental Example 1 : 5-HT4 receptor binding test
According to the method of C.J. Grossman et al. (British Journal of Pharmacology, vol. 109, pp. 618-624), a specific 5-HT4 receptor binding test was run using, as a tracer ligand, 1-methyl-1H-indole-3-carboxylic acid · 1-(2-methylsulfonylaminoethyl)-piperidin-4-ylmethyl ester substituted by tritium (hereinafter to be referred to as [3H]GR113808). Specifically, crude synapse membrane sample was prepared from guinea pig striatum, suspended in 50 mM HEPES buffer (pH 7.4) and used for testing. The test compound having several different concentrations and [3H]GR113808 (final concentration 0.1 nM) were added to this suspension and allowed to react at 37°C. Thirty minutes later, the reaction mixture was filtered by suction with cell harvester. The filter was washed with 50 mM HEPES buffer, and the radioactivity on the filter was counted by liquid scintillation counter. The non-specific binding was determined in the presence of 1 µM GR113808. The concentration of the test compound necessary for 50% inhibition (IC50) and Ki value were determined from graph.

The target of test [1] is isolated guinea pig ascending colon (Cavia porcellus, UniProt O70528). The test can be described thus: contraction of isolated guinea pig ascending colon. The settings on record: male Hartley guinea pig ascending colon, Tyrode solution 37°C, relative to methacholine (30 µM) contraction; read-out: Contraction of removed colon (EC50). The class given is cell-based. On the procedure:
Experimental Example 3 : contraction of isolated guinea pig ascending colon
About 3 cm long ascending colon segment was taken from male Hartley guinea pig and suspended in 10 ml of a Tyrode solution ventilated with a mixed gas of oxygen (95%) and CO2 (5%) at 37°C with the load of 2 g. The contraction was isotonically measured via isotonic transducer. After an equilibrium period of about 30 min, the test compound was administered non-cumulatively from lower concentrations, and dose-dependent contraction was measured. The test compound was administered at 15 minutes intervals. Then, contraction by the test compound in the presence of a 5-HT4 receptor antagonist, 4-amino-3-chloro-6-methoxybenzoic acid · 2-diethylaminoethyl ester (0.3 µM, hereinafter to be referred to as SDZ 205-557) was determined, and antagonistic effect on the reaction by SDZ 205-557 was confirmed.
The contraction by the test compound was evaluated based on the ratio of reaction relative to mean contraction induced by methacholine (30 µM) administered before and after each determination of dose-dependent contraction. The contraction was probit-converted using the maximum value of dose-response curve as 100, and expressed by EC50 as determined from linear regression and maximum reaction ratio.

The mark [2] stands for this setting: [3H]Granisetron 1.0 nM, crude synapse membrane from rat cerebral cortex, 25°C, cells marked * are IC50, read-out: Affinity for receptor 5-HT3 (∗ shows IC50).
[3] abbreviates: [3H]GR113808 0.1 nM, crude synapse membrane from guinea pig striatum, 37°C, read-out: Affinity for receptor (Ki value, nM) 5-HT4.
[4] abbreviates: [3H]Granisetron 1.0 nM, crude synapse membrane from rat cerebral cortex, 25°C.

Read-outs that look alike come from different tables or passages of the source. Some results are limits rather than exact numbers.

T2 sequence (O70528 whole entry): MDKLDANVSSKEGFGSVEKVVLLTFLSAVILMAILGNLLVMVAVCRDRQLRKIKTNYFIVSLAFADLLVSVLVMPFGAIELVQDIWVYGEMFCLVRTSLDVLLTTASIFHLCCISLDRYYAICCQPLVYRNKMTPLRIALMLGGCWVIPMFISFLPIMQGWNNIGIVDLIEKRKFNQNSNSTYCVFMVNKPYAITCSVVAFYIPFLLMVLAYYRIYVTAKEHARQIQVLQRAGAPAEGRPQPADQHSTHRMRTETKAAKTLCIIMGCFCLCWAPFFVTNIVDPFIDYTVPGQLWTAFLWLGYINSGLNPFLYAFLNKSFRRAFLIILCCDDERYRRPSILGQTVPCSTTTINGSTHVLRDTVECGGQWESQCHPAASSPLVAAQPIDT
Sequence of isolated guinea pig ascending colon (O70528 whole entry): as above

One may read the IC50 as the point on the concentration scale where inhibition reaches its midpoint. A word on the Ki: it is a measure of affinity in units of concentration, obtained from inhibition or displacement. One may read the EC50 as the concentration giving half of the maximal effect. Regarding `COc1cc(N)c(Cl)cc1C(=O)NC[C@H]1CCN(CCCCNC(=O)c2cccc3ccccc23)C1` [Example 22, 4-amino-5-chloro-2-methoxy-N-((3R)-1-(4-(1-naphthoylamino)butyl)pyrrolidin-3-ylmethyl)benzamide], the IC50 at 5-HT3 receptor (setting [2]) was greater than 1000 nM. The Ki on 5-HT4 receptor (setting [3]) was determined as 1.3 nM. Besides, in test [1], the half-maximal effective concentration (EC50) turned out to be 3.3 nM.
For the compound `CCCNC(=O)NCCCCCN1CC[C@H](CNC(=O)c2cc(Cl)c(N)cc2OC)C1` [Example 46, 4-amino-5-chloro-2-methoxy-N-((3R)-1-(5-(3-n-propylureido)pentyl)pyrrolidin-3-ylmethyl)benzamide], on 5-HT3 receptor (setting [2]), the IC50 is greater than 1000 nM. For the same compound, the Ki at 5-HT4 receptor (setting [3]) stood at 1.5 nM. For the same compound, in test [1], the EC50 turned out to be 6.9 nM.
For `COc1cc(N)c(Cl)cc1C(=O)NCC1CCN(CCCCCNC(=O)Nc2ccc(Cl)cc2)CC1` [Example 59, 4-amino-5-chloro-N-(1-(5-(3-(4-chlorophenyl)ureido)pentyl)-piperidin-4-ylmethyl)-2-methoxybenzamide], the values for the Ki on 5-HT3 receptor (setting [4]) and at 5-HT4 receptor (setting [3]) were 190 nM and 1.1 nM, respectively.
With `COc1cc(N)c(Cl)cc1C(=O)NC[C@H]1CCN(CCCCCNC(=O)Nc2ccccc2)C1` [Example 56, 4-amino-5-chloro-2-methoxy-N-((3R)-1-(5-(3-phenylureido)pentyl)pyrrolidin-3-ylmethyl)benzamide], at 5-HT3 receptor (setting [2]), the IC50 was greater than 1000 nM. Moreover, the Ki at 5-HT4 receptor (setting [3]) came to 0.65 nM. Moreover, in test [1], the 50% effective concentration (EC50) is 1 nM.
For the compound `COc1cc(N)c(Cl)cc1C(=O)NC[C@H]1CCN(CCCCNC(=O)c2cn(C)c3ccccc23)C1` [Example 85, N-(4-((3R)-3-(4-amino-5-chloro-2-methoxybenzoylaminomethyl)pyrrolidin-1-yl)butyl)-1-methyl-1H-indole-3-carboxamide], the Ki at 5-HT3 receptor (setting [4]) was found to be 260 nM; on 5-HT4 receptor (setting [3]) it was 0.44 nM. Also, in test [1], the EC50 came to 1.2 nM.
As to `COc1cc(N)c(Cl)cc1C(=O)NC[C@H]1CCN(CCNC(=O)CCCc2ccccc2)C1` [Example 100, 4-amino-5-chloro-2-methoxy-N-((3R)-1-(2-(4-phenylbutyrylamino)ethyl)pyrrolidin-3-ylmethyl)benzamide], the 50% inhibitory concentration (IC50) on 5-HT3 receptor (setting [2]) is greater than 1000 nM. Besides, the inhibition constant (Ki) on 5-HT4 receptor (setting [3]) is 5.3 nM.
Regarding `COc1cc(N)c(Cl)cc1C(=O)NC[C@H]1CCN(CCCCNC(=O)c2cn(Cc3ccccc3)c3ccccc23)C1` [Example 95, N-(4-((3R)-3-(4-amino-5-chloro-2-methoxybenzoylaminomethyl)pyrrolidin-1-yl)butyl)-1-benzyl-1N-indole-3-carboxamide], the half-maximal inhibitory concentration (IC50) at 5-HT3 receptor (setting [2]) is greater than 1000 nM. The Ki on 5-HT4 receptor (setting [3]) was found to be 1.2 nM.
Regarding `COc1cc(N)c(Cl)cc1C(=O)NCC1CCN(CCCCNC(=O)c2cccc3ccccc23)CC1` [Example 24, 4-amino-5-chloro-2-methoxy-N-(1-(4-(1-naphthoylamino)butyl)piperidin-4-ylmethyl)benzamide], at 5-HT3 receptor (setting [2]), the 50% inhibitory concentration (IC50) was greater than 1000 nM. Moreover, the Ki at 5-HT4 receptor (setting [3]) amounted to 1.6 nM. In addition, the EC50 in test [1] turned out to be 3.9 nM.
For `COc1cc(N)c(Cl)cc1C(=O)NCC1CCN(CCCCCN2C(=O)c3ccccc3C2=O)C1` (stereo not drawn) [Example 70, 4-amino-5-chloro-N-(1-(5-(2,3-dihydro-1,3-dioxo-1H-isoindol-2-yl)pentyl)pyrrolidin-3-ylmethyl)-2-methoxybenzamide], in that order: greater than 1000 nM, 7.4 nM and 6.7 nM.
As to `COc1cc(N)c(Cl)cc1C(=O)NC[C@H]1CCN(CCCNC(=O)c2ccccc2)C1` [Example 11, 4-amino-N-((3R)-1-(3-benzoylaminopropyl)pyrrolidin-3-ylmethyl)-5-chloro-2-methoxybenzamide], the IC50 at 5-HT3 receptor (setting [2]) is greater than 1000 nM. Also, the Ki at 5-HT4 receptor (setting [3]) is 6.2 nM.
Consider `COc1cc(N)c(Cl)cc1C(=O)NC[C@H]1CCN(CCCCCNC(=O)c2cn(C)c3ccccc23)C1` [Example 88, N-(5-((3R)-3-(4-amino-5-chloro-2-methoxybenzoylaminomethyl)pyrrolidin-1-yl)pentyl)-1-methyl-1H-indole-3-carboxamide], for which the Ki is 350 nM at 5-HT3 receptor (setting [4]) and 1.2 nM at 5-HT4 receptor (setting [3]). Moreover, the EC50 in test [1] was 1.4 nM.
Regarding `COc1cc(N)c(Cl)cc1C(=O)NCC1CCN(CCCNC(=O)c2ccc(Cl)cc2)C1` (stereo not drawn) [Example 13, 4-amino-5-chloro-N-(1-(3-(4-chlorobenzoylamino)propyl)pyrrolidin-3-ylmethyl)-2-methoxybenzamide], the 50% inhibitory concentration (IC50) at 5-HT3 receptor (setting [2]) was greater than 1000 nM. The Ki at 5-HT4 receptor (setting [3]) was determined as 3.1 nM.
`CCCNC(=O)NCCCCN1CCC(CNC(=O)c2cc(Cl)c(N)cc2OC)CC1` [Example 45, 4-amino-5-chloro-2-methoxy-N-(1-(4-(3-n-propylureido)butyl)piperidin-4-ylmethyl)benzamide]: at 5-HT3 receptor (setting [2]), the IC50 is greater than 1000 nM. Further, the Ki on 5-HT4 receptor (setting [3]) turned out to be 5.5 nM.
Consider `COc1cc(N)c(Cl)cc1C(=O)NC[C@H]1CCN(CCCCNC(=O)c2cn(C(C)C)c3ccccc23)C1` [Example 94, N-(4-((3R)-3-(4-amino-5-chloro-2-methoxybenzoylaminomethyl)pyrrolidin-1-yl)butyl)-1-isopropyl-1H-indole-3-carboxamide], for which the half-inhibitory concentration (IC50) at 5-HT3 receptor is greater than 1000 nM. Further, the inhibition constant (Ki) on 5-HT4 receptor came out at 3.5 nM.
Turning to `COc1cc(N)c(Cl)cc1C(=O)NCC1CCN(CCCCCNC(=O)c2ccc(C)cc2)CC1` [Example 31, 4-amino-5-chloro-N-(1-(5-(4-methylbenzoylamino)pentyl)piperidin-4-ylmethyl)-2-methoxybenzamide], the half-inhibitory concentration (IC50) at 5-HT3 receptor (setting [2]) was greater than 1000 nM. In addition, on 5-HT4 receptor (setting [3]), the Ki turned out to be 2.3 nM.
For `COc1cc(N)c(Cl)cc1C(=O)NCC1CCN(CCCNC(=O)c2cccs2)C1` (stereo not drawn) [Example 19, 4-amino-5-chloro-2-methoxy-N-(1-(3-(2-thiophenecarbonylamino)propyl)pyrrolidin-3-ylmethyl)benzamide], in that order: greater than 1000 nM and 4.4 nM.
With `COc1cc(N)c(Cl)cc1C(=O)NCC1CCN(CCCNC(=O)c2ccc(C)cc2)C1` (stereo not drawn) [Example 17, 4-amino-5-chloro-2-methoxy-N-(1-(3-(4-methylbenzoylamino)propyl)pyrrolidin-3-ylmethyl)benzamide], the IC50 at 5-HT3 receptor (setting [2]) was greater than 1000 nM. In addition, the inhibition constant (Ki) on 5-HT4 receptor (setting [3]) turned out to be 3.1 nM.
Regarding `COc1cc(N)c(Cl)cc1C(=O)NCC1CCN(CCCC(=O)Nc2ccccc2)C1` (stereo not drawn) [Example 71, 4-amino-5-chloro-2-methoxy-N-(1-(3-phenylcarbamoylpropyl)pyrrolidin-3-ylmethyl)benzamide], the half-maximal inhibitory concentration (IC50) on 5-HT3 receptor (setting [2]) was greater than 1000 nM. Also, the inhibition constant (Ki) on 5-HT4 receptor (setting [3]) was 7.4 nM.
In the case of `COc1cc(N)c(Cl)cc1C(=O)NCCCCCN1CC[C@H](CNC(=O)c2cc(Cl)c(N)cc2OC)C1` [Example 78, 4-amino-N-((3R)-1-(5-(4-amino-5-chloro-2-methoxybenzoylamino)pentyl)pyrrolidin-3-ylmethyl)-5-chloro-2-methoxybenzamide], the Ki at 5-HT3 receptor (setting [4]) amounted to 370 nM; at 5-HT4 receptor (setting [3]), 1.4 nM.
